Assay results from ChEMBL document CHEMBL1201862, “PubChem BioAssay data set” (2004).
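Protocol summary: plate cells (96-well), add compound at 5 concentrations, incubate 48 h, interpolate endpoints linearly. GI50 is the concentration that inhibits growth by half.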 Calls of active or inactive are those of the source. Cut-off read from the data, not from the text of the source: active = GI50 up to about 1.1 µM and inactive = higher.

Key:
Experiment in all cases: NCI anticancer screen, dose series, 48 h
[1] = system: 786-0
[2] = system: A498
[3] = system: A549
[4] = system: ACHN
[5] = system: BT-549
[6] = system: CAKI-1
[7] = system: CCRF-CEM
[8] = system: COLO 205
[9] = system: EKVX
[10] = system: HCC 2998
[11] = system: HCT-116
[12] = system: HCT-15
[13] = system: HL-60
[14] = system: HOP-62
[15] = system: HT-29
[16] = system: K562
[17] = system: KM12
[18] = system: LOX IMVI
[19] = system: M14
[20] = system: MDA-MB-231
[21] = system: MDA-MB-435
[22] = system: MDA-N
[23] = system: MOLT-4
[24] = system: Malme-3M
[25] = system: NCI-H226
[26] = system: NCI-H23
[27] = system: NCI-H460
[28] = system: NCI-H522
[29] = system: NCI/ADR-RES
[30] = system: OVCAR-3
[31] = system: OVCAR-5
[32] = system: OVCAR-8
[33] = system: PC-3
[34] = system: RPMI-8226
[35] = system: RXF 393
[36] = system: SF-295
[37] = system: SF-539
[38] = system: SK-MEL-28
[39] = system: SK-MEL-2
[40] = system: SK-MEL-5
[41] = system: SN12C
[42] = system: SNB-75
[43] = system: SR
[44] = system: SW-620
[45] = system: T47D
[46] = system: TK-10
[47] = system: U-251
[48] = system: UACC-257
[49] = system: UACC-62
[50] = system: UO-31
[51] = system: DU-145
[52] = system: HOP-92
[53] = system: Hs-578T
[54] = system: IGROV-1
[55] = system: MCF7
[56] = system: OVCAR-4
[57] = system: SF-268
[58] = system: SK-OV-3
[59] = system: SNB-19

CN(C)CCn1c(=O)c2ccc3c4c(nn3CCN(C)C)c3cc(O)ccc3n(c1=O)c24
GI50 [1]: < 0.01 µM (active)
GI50 [2]: 0.198 µM (active)
GI50 [3]: 0.0325 µM (active)
GI50 [4]: < 0.0308 µM (active)
GI50 [5]: 0.879 µM (active)
GI50 [6]: 0.0501 µM (active)
GI50 [7]: < 0.032 µM (active)
GI50 [8]: 0.0706 µM (active)
GI50 [9]: 0.124 µM (active)
GI50 [10]: < 0.0493 µM (active)
GI50 [11]: < 0.0225 µM (active)
GI50 [12]: 0.147 µM
GI50 [13]: 0.0419 µM (active)
GI50 [14]: < 0.0316 µM (active)
GI50 [15]: < 0.01 µM (active)
GI50 [16]: 0.0459 µM (active)
GI50 [17]: 0.161 µM (active)
GI50 [18]: < 0.0306 µM (active)
GI50 [19]: 0.397 µM (active)
GI50 [20]: 0.0536 µM (active)
GI50 [21]: 0.134 µM (active)
GI50 [22]: 0.181 µM (active)
GI50 [23]: < 0.01 µM (active)
GI50 [24]: 0.354 µM (active)
GI50 [25]: 0.126 µM (active)
GI50 [26]: 0.0855 µM (active)
GI50 [27]: < 0.0411 µM (active)
GI50 [28]: < 0.01 µM (active)
GI50 [29]: 0.783 µM (active)
GI50 [30]: 0.114 µM (active)
GI50 [31]: 0.0723 µM (active)
GI50 [32]: < 0.01 µM (active)
GI50 [33]: 0.0659 µM (active)
GI50 [34]: 0.0541 µM (active)
GI50 [35]: 0.281 µM (active)
GI50 [36]: 0.0136 µM (active)
GI50 [37]: 1.29 µM (inactive)
GI50 [38]: 0.548 µM (active)
GI50 [39]: 0.131 µM (active)
GI50 [40]: 0.319 µM (active)
GI50 [41]: 0.0148 µM (active)
GI50 [42]: 0.059 µM (active)
GI50 [43]: < 0.01 µM (active)
GI50 [44]: 0.0365 µM (active)
GI50 [45]: 0.378 µM (active)
GI50 [46]: 0.117 µM (active)
GI50 [47]: < 0.0348 µM (active)
GI50 [48]: 0.308 µM (active)
GI50 [49]: 0.172 µM (active)
GI50 [50]: 0.0927 µM (active)

Cc1ccccc1N/C(N)=N/C#N
GI50 [1]: > 100 µM (inactive)
GI50 [3]: > 100 µM (inactive)
GI50 [4]: > 100 µM (inactive)
GI50 [5]: > 100 µM (inactive)
GI50 [6]: > 100 µM (inactive)
GI50 [7]: > 100 µM (inactive)
GI50 [8]: > 100 µM (inactive)
GI50 [51]: > 100 µM (inactive)
GI50 [9]: > 100 µM (inactive)
GI50 [10]: > 100 µM (inactive)
GI50 [11]: > 100 µM (inactive)
GI50 [12]: > 100 µM
GI50 [13]: > 100 µM (inactive)
GI50 [14]: > 100 µM (inactive)
GI50 [52]: 97.7 µM (inactive)
GI50 [15]: > 100 µM (inactive)
GI50 [53]: > 100 µM (inactive)
GI50 [54]: > 100 µM (inactive)
GI50 [16]: > 100 µM (inactive)
GI50 [18]: > 100 µM (inactive)
GI50 [19]: > 100 µM (inactive)
GI50 [55]: > 100 µM (inactive)
GI50 [20]: > 100 µM (inactive)
GI50 [21]: > 100 µM (inactive)
GI50 [22]: > 100 µM (inactive)
GI50 [23]: > 100 µM (inactive)
GI50 [24]: > 100 µM (inactive)
GI50 [26]: > 100 µM (inactive)
GI50 [27]: > 100 µM (inactive)
GI50 [29]: > 100 µM (inactive)
GI50 [56]: > 100 µM (inactive)
GI50 [31]: > 100 µM (inactive)
GI50 [32]: > 100 µM (inactive)
GI50 [33]: > 100 µM (inactive)
GI50 [34]: > 100 µM (inactive)
GI50 [35]: > 100 µM (inactive)
GI50 [57]: > 100 µM (inactive)
GI50 [37]: > 100 µM (inactive)
GI50 [38]: > 100 µM (inactive)
GI50 [39]: > 100 µM (inactive)
GI50 [40]: > 100 µM (inactive)
GI50 [58]: > 100 µM (inactive)
GI50 [41]: > 100 µM (inactive)
GI50 [59]: > 100 µM (inactive)
GI50 [42]: > 100 µM (inactive)
GI50 [43]: > 100 µM (inactive)
GI50 [44]: > 100 µM (inactive)
GI50 [46]: > 100 µM (inactive)
GI50 [47]: > 100 µM (inactive)
GI50 [48]: > 100 µM (inactive)
GI50 [49]: > 100 µM (inactive)
GI50 [50]: > 100 µM (inactive)
